Source: US20240254138A1, “TRICYCLIC PYRIMIDINES AS CYCLIN-DEPENDENT KINASE 7 (CDK7) INHIBITORS” (JANSSEN PHARMACEUTICA NV, priority 2021, published 2024)
Where two headings read alike, the source gives them in different places.

Legend:
[1] = system: RNA Polymerase II Serine 5 phosphorylation (Rpb1 CTD, downstream substrate of CDK7) in A549 cells; test: Imaging-based cellular RNA PolII Ser5 phosphorylation assay in A549 cells; assay type: cell-based, human; settings: wild-type CDK7, RNA PolII Ser5 phosphorylation, averaged over all measurements; for IC50: Homo sapiens, A549, A549 cells, read-out: CDK7_A549 Wild-type CDK7 (pIC50) (converted); for CDK7_A549 Wild-type CDK7 (pIC50): A549 cells
Procedure, shortened: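 A549 cells, seeded 1000/well in DMEM with 1% FBS and cultured 20 h, were treated with compound for 3 h at 37 °C. Ser5-phospho-Rpb1 CTD detected by immunofluorescence imaging after fixation and methanol permeabilization; IC50 from curve fit normalized to DMSO and 10 μM reference-compound controls.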

[2] = system: RNA Polymerase II Serine 5 phosphorylation in A549 cells overexpressing CDK7-mutant (C312S); test: Imaging-based cellular RNA PolII Ser5 phosphorylation assay in A549 cells overexpressing CDK7-mutant (C312S); assay type: cell-based, human; settings: RNA PolII Ser5 phosphorylation, averaged over all measurements; for IC50: Homo sapiens, A549, A549 cells overexpressing CDK7-mutant (C312S), read-out: CDK7_A549 mutant hCDK7(pIC50) (converted); for CDK7_A549 mutant hCDK7(pIC50): A549 cells overexpressing CDK7-mutant (C312S)
Procedure, shortened: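 A549 cells overexpressing CDK7 C312S (with endogenous wild-type CDK7) were treated with compound for 3 h at 37 °C in 1% FBS medium. Phospho-Rpb1 CTD Ser5 was immunostained after fixation and imaged. IC50 came from curve fit of % control, normalised to DMSO and 10 μM reference-compound controls.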

[3] = target: CDK7/cyclinH/MAT1 trimeric complex (Homo sapiens, UniProt P50613); test: In vitro CDK7 assay, potency of irreversible covalent inhibitors (kinact/KI), coupled PK/LDH ADP readout at 340 nm
Chain of CDK7/cyclinH/MAT1 trimeric complex (P50613 whole entry): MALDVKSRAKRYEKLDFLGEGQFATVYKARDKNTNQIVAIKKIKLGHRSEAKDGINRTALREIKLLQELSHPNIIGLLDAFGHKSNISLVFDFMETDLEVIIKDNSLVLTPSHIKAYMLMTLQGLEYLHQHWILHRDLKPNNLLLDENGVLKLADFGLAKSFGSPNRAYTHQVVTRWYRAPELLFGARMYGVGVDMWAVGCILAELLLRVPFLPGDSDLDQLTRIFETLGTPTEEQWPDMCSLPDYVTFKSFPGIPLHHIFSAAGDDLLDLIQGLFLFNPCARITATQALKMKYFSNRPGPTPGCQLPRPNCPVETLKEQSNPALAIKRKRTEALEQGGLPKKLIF
Chain of CDK7/cyclinH/MAT1 trimeric complex (P51946 whole entry partner): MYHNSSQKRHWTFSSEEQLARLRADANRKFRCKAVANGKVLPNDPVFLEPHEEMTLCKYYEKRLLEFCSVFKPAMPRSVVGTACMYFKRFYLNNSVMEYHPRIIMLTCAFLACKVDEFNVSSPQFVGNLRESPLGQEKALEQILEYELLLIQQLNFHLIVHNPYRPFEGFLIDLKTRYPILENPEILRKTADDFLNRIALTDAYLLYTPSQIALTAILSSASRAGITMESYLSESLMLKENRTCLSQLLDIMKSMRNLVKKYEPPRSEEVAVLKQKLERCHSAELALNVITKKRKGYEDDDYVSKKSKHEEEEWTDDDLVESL
Chain of CDK7/cyclinH/MAT1 trimeric complex (P51948 whole entry partner): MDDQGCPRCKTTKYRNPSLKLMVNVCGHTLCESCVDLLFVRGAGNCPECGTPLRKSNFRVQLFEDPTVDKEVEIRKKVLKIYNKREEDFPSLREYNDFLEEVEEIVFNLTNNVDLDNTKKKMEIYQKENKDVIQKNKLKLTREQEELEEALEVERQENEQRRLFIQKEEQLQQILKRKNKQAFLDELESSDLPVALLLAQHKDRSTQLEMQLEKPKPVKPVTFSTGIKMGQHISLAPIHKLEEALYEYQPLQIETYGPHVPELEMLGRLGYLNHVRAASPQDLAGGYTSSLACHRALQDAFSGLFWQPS

[4] = CDK7 (KI(μM)), […], 1 mM ATP, room temperature, averaged values over all measurements
[5] = read-out: CDK7 (kinact, s^−1), kinact = maximal rate of inactivation, 1 mM ATP, room temperature, averaged values over all measurements
[6] = read-out: CDK7 (kinact/KI, M^−1*s^−1), potency of irreversible covalent inhibitors, 1 mM ATP, room temperature, averaged values over all measurements
[7] = read-out: CDK7 (20 nM enz.) (kinact/KI, M^−1*s^−1), 20 nM enzyme
[8] = CDK7 (20 nM enz.) (KI, μM), 20 nM enzyme
[9] = read-out: CDK7 (20 nM enz.) (kinact, s^−1), 20 nM enzyme
[10] = read-out: CDK7 (20 nM enz.) (kobs/[I], M^−1*s^−1), 20 nM enzyme

Row | SMILES | IC50 [1] [nM] | IC50 [2] [nM] | kinact/KI [3, 7] [M⁻¹ s⁻¹] | Ki [3, 8] [µM] | kinact [3, 9] [s⁻¹] | kinact/KI [3, 10] [M⁻¹ s⁻¹] | other results
1 | O=C(/C=C/CN1CCOCC1)N1CC(N2CCC(c3ccc4c(c3)Nc3nccc(N5CCOCC5)c3CO4)CC2)C1 [Compound 57] | 1200 | > 3980 | – | – | – | – | Ki [3, 4]: 0.248 µM; kinact [3, 5]: 0.000129 s⁻¹; kinact/KI [3, 6]: 518 M⁻¹ s⁻¹
2 | C=CC(=O)N1CC(c2cc(-c3ccc4c(c3)Nc3nccc(N5CCOCC5)c3CO4)ccn2)C1 [Compound 58] | 490 | > 10000 | – | – | – | – | Ki [3, 4]: 0.112 µM; kinact [3, 5]: 5.76e-05 s⁻¹; kinact/KI [3, 6]: 516 M⁻¹ s⁻¹
3 | C=CC(=O)N1CC(N2CCC(c3cc(C)c4c(c3)Nc3nccc(C5CCOCC5)c3CO4)CC2)C1 [Compound 59] | 72.4 | – | 1480 | – | – | – | CDK7_A549 mutant hCDK7(pIC50) [2]: <5.4
4 | C=CC(=O)N1CC(N2CCC(c3ccc4c(c3)Nc3ncc(Cl)c(N5CCS(=O)(=O)CC5)c3CO4)CC2)C1 [Compound 60] | 977 | > 10000 | 502 | 0.128 | 6.43e-05 | – | –
5 | C=CC(=O)N1CC(c2ccnc(-c3ccc4c(c3)Nc3nccc(N5CCOCC5)c3CO4)c2)C1 [Compound 61] | 1620 | > 10000 | 36.6 | 1.32 | 4.84e-05 | – | –
6 | C=CC(=O)N1CC(N2CCC(c3cc(F)c4c(c3)Nc3nccc(N5CCOCC5)c3CO4)CC2)C1 [Compound 62] | 77.6 | > 10000 | 2410 | 0.0266 | 6.42e-05 | – | –
7 | C=CC(=O)N1CC(N2CCC(c3ccc4c(c3)Nc3nccc(N5CCOC[C@@H]5C)c3CO4)CC2)C1 [Compound 63] | 288 | > 10000 | 885 | 0.0857 | 7.59e-05 | – | –
8 | C=CC(=O)N1CCC2(CC1)CC(Cc1ccc3c(c1)Nc1nccc(C4CCOCC4)c1CO3)C2 [Compound 64] | > 10000 | > 10000 | 32 | 0.445 | 1.43e-05 | – | –
9 | C=CC(=O)Nc1ccc(CCc2ccc3c(c2)Nc2nccc(N4CCOCC4)c2CO3)cn1 [Compound 65] | 67.6 | 8710 | – | – | – | 1160 | –
10 | C=CC(=O)N1CC(N2CCC(c3cc(C)c4c(c3)Nc3nccc(N5CCOCC5)c3CO4)CC2)C1 [Compound 66] | – | – | – | – | – | 1030 | CDK7_A549 Wild-type CDK7 (pIC50) [1]: 7.16; CDK7_A549 mutant hCDK7(pIC50) [2]: <5
11 | C=CC(=O)N1CC(N2[C@@H]3CC[C@H]2C[C@@H](c2ccc4c(c2)Nc2nccc(N5CCOCC5)c2CO4)C3)C1 [Compound 68] | – | – | – | – | – | – | CDK7_A549 Wild-type CDK7 (pIC50) [1]: 7.4; CDK7_A549 mutant hCDK7(pIC50) [2]: 5.14; CDK7 (20 nM enz.) (kobs/[I], M^−1*s^−1) ([3]; 20 nM enzyme): 1369 M⁻¹ s⁻¹
12 | C=CC(=O)N1CC(N2CCC(c3cc(C)c4c(c3)Nc3nccc(N5CCS(=O)(=O)CC5)c3CO4)CC2)C1 [Compound 71] | 245 | > 10000 | 973 | 0.0575 | 5.6e-05 | – | –
13 | C=CC(=O)N1CC(N2CCC(c3cc(C)c4c(c3)Nc3nccc(C5CCOCC5)c3CO4)CC2)C1 [Compound 73] | – | – | – | – | – | – | CDK7_A549 Wild-type CDK7 (pIC50) [1]: 7.32; CDK7_A549 mutant hCDK7(pIC50) [2]: <5; CDK7 (20 nM enz.) (kinact/KI, M^−1*s^−1) ([3]; 20 nM enzyme): 1301.8 M⁻¹ s⁻¹
14 | C=CC(=O)N1CC(N2CCC(c3ccc4c(c3)Nc3nccc(N5CCOC6(CC6)C5)c3CO4)CC2)C1 [Compound 77] | 182 | > 10000 | 1010 | 0.0571 | 5.75e-05 | – | –
15 | C=CC(=O)N1CCC(N2CCC(c3cc(C)c4c(c3)Nc3nccc(N5CCOCC5)c3CO4)CC2)C1 (stereo not drawn) [Compound 78] | 26.9 | 8130 | – | – | – | 908 | –
16 | C=CC(=O)N1CCC(N2CCC(c3cc(C)c4c(c3)Nc3nccc(N5CCOCC5)c3CO4)CC2)CC1 [Compound 79] | 37.2 | 5890 | – | – | – | 766 | –
17 | C=CC(=O)N1CC(N2CCC(O)(c3ccc4c(c3)Nc3nccc(N5CCOCC5)c3CO4)CC2)C1 [Compound 80] | 417 | > 10000 | 740 | 0.0563 | 4.16e-05 | – | –
18 | C=CC(=O)N1CC(N2CCC(c3cc(C)c4c(c3)Nc3nccc(C5=CCS(=O)(=O)CC5)c3CO4)CC2)C1 [Compound 81] | 417 | > 10000 | 640 | 0.067 | 4.29e-05 | – | –
19 | C=CC(=O)N1CC(N2CCC(c3cc(Br)c4c(c3)Nc3nccc(C5CCOCC5)c3CO4)CC2)C1 [Compound 82] | 46.8 | 7940 | – | – | – | 1570 | –
20 | C=CC(=O)N1CC(N2CCC(c3ccc4c(c3)Nc3nccc(N5CCS(=O)(=NC)CC5)c3CO4)CC2)C1 [Compound 84] | 575 | > 10000 | 354 | 0.191 | 6.74e-05 | – | –
21 | C=CC(=O)N1CCC(N2CC(c3cc(Cl)c4c(c3)Nc3nccc(-c5cnn(C)c5)c3CO4)C2)CC1 [Compound 85] | 81.3 | 4370 | – | – | – | 608 | –
22 | C=CC(=O)N1CCC(N2CC(c3cc(Cl)c4c(c3C)Nc3nccc(C5CCOCC5)c3CO4)C2)CC1 [Compound 86] | 1580 | > 10000 | 63.1 | 0.397 | 2.5e-05 | – | –
23 | C=CC(=O)N1CC(N2CCC(c3cc4c(c(C5CC5)c3)OCc3c(C5CCOCC5)ccnc3N4)CC2)C1 [Compound 87] | 81.3 | > 10000 | – | – | – | 1420 | –
24 | C=CC(=O)N1CC(N2CC(c3ccc4c(c3)Nc3nccc(N5CCOCC5)c3CO4)C2)C1 [Compound 88] | 162 | > 10000 | – | – | – | 1050 | –
25 | C=CC(=O)N1CC(N2CCC(c3cc(Cl)c4c(c3)Nc3nccc(N5CCOCC5)c3CO4)CC2)C1 [Compound 91] | – | – | – | – | – | 1740 | CDK7_A549 Wild-type CDK7 (pIC50) [1]: 7.42; CDK7_A549 mutant hCDK7(pIC50) [2]: <5
26 | C=CC(=O)N=S1(=O)CCN(c2ccnc3c2COc2ccc(C4CCN(C5CN(C(=O)C=C)C5)CC4)cc2N3)CC1 [Compound 94] | > 10000 | > 10000 | 11.2 | 3.37 | 3.79e-05 | – | –
27 | C=CC(=O)N1CCC(N2CCC(c3ccc4c(c3)Nc3nccc(N5CCS(=O)(=NC)CC5)c3CO4)CC2)CC1 [Compound 95] | 288 | > 10000 | 101 | 0.48 | 4.87e-05 | – | –
28 | C=CC(=O)N1CCC(N2CC(c3ccc4c(c3)Nc3nccc(C5CCOCC5)c3CO4)C2)CC1 [Compound 96] | 123 | > 10000 | – | 0.184 | – | – | CDK7 (20 nM enz.) (kinact, s^−1) ([3]; 20 nM enzyme): 4.701e-05 s⁻¹; CDK7 (20 nM enz.) (kinact/KI, M^−1*s^−1) ([3]; 20 nM enzyme): 255.867 M⁻¹ s⁻¹
29 | C=CC(=O)N1CC(N2CCC(c3cc(C)c4c(c3)Nc3nccc(-c5cnn(C)c5)c3CO4)CC2)C1 [Compound 99] | 44.7 | > 10000 | – | – | – | 1440 | –
30 | C=CC(=O)N1CCC(N2CC(c3cc(C)c4c(c3)Nc3nccc(-c5cnn(C)c5)c3CO4)C2)CC1 [Compound 100] | 51.3 | 3310 | – | – | – | – | CDK7 (20 nM enz.) (kinact, s^−1) ([3]; 20 nM enzyme): 5.051e-05 s⁻¹; CDK7 (20 nM enz.) (kinact/KI, M^−1*s^−1) ([3]; 20 nM enzyme): 1179.87 M⁻¹ s⁻¹
